# In ChEMBL document CHEMBL4699449, “Adenosine A Receptor Antagonists for Cancer Immunotherapy” (J Med Chem, 2020):
# What was measured:
# [1] = Half life in mouse at 2 mg/kg, iv or 10 mg/kg, po measured up to 24 hrs by LC-MS/MS analysis; format: ADME, organism-based; settings: in vivo
# Adenosine receptor A2a [2] = molecular target: T1, Adenosine receptor A2a (Homo sapiens, UniProt P29274); assay: Antagonist activity at human adenosine 2A receptor expressed in HEK293 cells assessed as reduction in NECA-induced cAMP level incubated for 15 mins by HTRF assay; format: functional, cell-based
# Homo sapiens [3] = species: Homo sapiens; assay: Selectivity ratio of IC50 for human adenosine 2B receptor expressed in HEK293 cells to IC50 for human adenosine 2A receptor expressed in HEK293 cells; format: cell-based
# Homo sapiens [4] = species: Homo sapiens; assay: Selectivity ratio of IC50 for human adenosine A1 receptor expressed in CHO cells to IC50 for human adenosine 2A receptor expressed in HEK293 cells; format: cell-based
# Homo sapiens [5] = species: Homo sapiens; assay: Selectivity ratio of IC50 for human adenosine A3 receptor expressed in CHO cells to IC50 for human adenosine 2A receptor expressed in HEK293 cells; format: cell-based
# [6] = Cmax in mouse at 1 mg/kg, iv measured up to 24 hrs by LC-MS/MS analysis; format: ADME, organism-based; design: route intravenous, dose 1 mg/kg, time <=24; settings: in vivo
# Adenosine receptor A2a [7] = molecular target: T1, Adenosine receptor A2a; assay: Antagonist activity at adenosine 2A receptor in human PBMC assessed as reversal of NECA/CD3/CD28-stimulated IL-2 release incubated for 24 hrs
# Adenosine receptor A2a [8] = molecular target: T1, Adenosine receptor A2a; assay: Antagonist activity at adenosine 2A receptor in human blood assessed as reversal of NECA/LPS-stimulated TNF-alpha release incubated for 5 hrs; format: tissue-based
# Adenosine receptor A2a [9] = molecular target: T2, Adenosine receptor A2a (Mus musculus, UniProt Q60613); assay: Antagonist activity at adenosine 2A receptor in BALB/c mouse T cells assessed as reduction in CGS-21680-induced suppression of IL-2 secretion incubated for 24 hrs by ELISA; format: cell-based, T cell
# Adenosine receptor A2a [10] = molecular target: T2, Adenosine receptor A2a; assay: Antagonist activity at adenosine 2A receptor in BALB/c mouse T cells assessed as reduction in CGS-21680-induced suppression of IFN-gamma secretion incubated for 24 hrs by ELISA; format: cell-based, T cell
# Adenosine receptor A3 = molecular target: T3, Adenosine receptor A3 (Homo sapiens, UniProt P0DMS8); assay: Antagonist activity at human adenosine A3 receptor expressed in HeLa cells by radioligand competition binding assay; format: cell-based
# T3 sequence (P0DMS8 whole entry): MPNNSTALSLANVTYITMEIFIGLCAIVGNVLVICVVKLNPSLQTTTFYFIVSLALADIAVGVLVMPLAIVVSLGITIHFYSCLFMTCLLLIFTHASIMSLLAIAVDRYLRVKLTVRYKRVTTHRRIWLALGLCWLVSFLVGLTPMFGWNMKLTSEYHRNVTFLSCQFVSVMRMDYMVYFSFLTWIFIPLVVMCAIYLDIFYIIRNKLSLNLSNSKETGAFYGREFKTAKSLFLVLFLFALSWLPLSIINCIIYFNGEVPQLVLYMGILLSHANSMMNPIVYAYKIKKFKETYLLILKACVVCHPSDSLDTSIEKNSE
# Adenosine receptor A1 = molecular target: T4, Adenosine receptor A1 (Homo sapiens, UniProt P30542); assay: Antagonist activity at human adenosine A1 receptor expressed in CHO cells by radioligand competition binding assay; format: cell-based
# T4 sequence (P30542 whole entry): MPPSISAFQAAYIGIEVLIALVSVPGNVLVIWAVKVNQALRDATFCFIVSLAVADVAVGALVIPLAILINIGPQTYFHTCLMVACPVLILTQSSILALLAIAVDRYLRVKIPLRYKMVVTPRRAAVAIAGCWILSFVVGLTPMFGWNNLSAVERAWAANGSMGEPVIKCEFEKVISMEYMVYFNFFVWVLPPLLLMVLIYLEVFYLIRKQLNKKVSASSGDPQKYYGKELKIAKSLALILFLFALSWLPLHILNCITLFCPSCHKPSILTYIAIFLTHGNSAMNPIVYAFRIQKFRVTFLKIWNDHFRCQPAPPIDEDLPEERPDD
# Adenosine receptor A2b = molecular target: T5, Adenosine receptor A2b (Homo sapiens, UniProt P29275); assay: Antagonist activity at human adenosine A2b receptor expressed in HEK293 cells by radioligand competition binding assay; format: cell-based
# T5 sequence (P29275 whole entry): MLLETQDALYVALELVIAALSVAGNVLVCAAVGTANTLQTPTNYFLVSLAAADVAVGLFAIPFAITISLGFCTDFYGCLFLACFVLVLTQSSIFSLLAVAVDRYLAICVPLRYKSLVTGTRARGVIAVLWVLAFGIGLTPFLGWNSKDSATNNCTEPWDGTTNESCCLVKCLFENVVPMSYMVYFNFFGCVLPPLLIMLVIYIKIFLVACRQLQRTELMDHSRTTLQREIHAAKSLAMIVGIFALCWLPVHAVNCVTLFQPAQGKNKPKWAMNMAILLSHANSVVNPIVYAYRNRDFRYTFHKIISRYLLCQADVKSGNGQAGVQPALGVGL
# Homo sapiens [11] = species: Homo sapiens; assay: Selectivity ratio of Ki for human adenosine A3 receptor to Ki for human Adenosine 2A receptor
# Homo sapiens [12] = species: Homo sapiens; assay: Selectivity ratio of Ki for human adenosine 2B receptor expressed in HEK293 cells to Ki for human adenosine 2A receptor expressed in HEK293 cells; format: cell-based
# Homo sapiens [13] = species: Homo sapiens; assay: Selectivity ratio of Ki for human adenosine A1 receptor to Ki for human Adenosine 2A receptor
# [14] = molecular target: T6, Adenosine receptor A2b (Homo sapiens) (UniProt P29275); assay: Antagonist activity at human adenosine 2B receptor expressed in CHO-K1 cells preincubated for 1 hr followed by NECA stimulation and measured after 30 mins by Eu-cAMP tracer based TR-FRET assay; format: functional, cell-based; settings: filed as antagonist, time 1.5 hrs
# T6 sequence (whole entry): T5 sequence (P29275 whole entry)
# Adenosine receptor A2a [15] = molecular target: T1, Adenosine receptor A2a; assay: Antagonist activity at human adenosine 2A receptor expressed in T-REx-CHO cells preincubated for 1 hr followed by NECA stimulation and measured after 30 mins by Eu-cAMP tracer based TR-FRET assay; format: functional, cell-based; settings: filed as antagonist, time 1.5 hrs
# T1 sequence (P29274 whole entry): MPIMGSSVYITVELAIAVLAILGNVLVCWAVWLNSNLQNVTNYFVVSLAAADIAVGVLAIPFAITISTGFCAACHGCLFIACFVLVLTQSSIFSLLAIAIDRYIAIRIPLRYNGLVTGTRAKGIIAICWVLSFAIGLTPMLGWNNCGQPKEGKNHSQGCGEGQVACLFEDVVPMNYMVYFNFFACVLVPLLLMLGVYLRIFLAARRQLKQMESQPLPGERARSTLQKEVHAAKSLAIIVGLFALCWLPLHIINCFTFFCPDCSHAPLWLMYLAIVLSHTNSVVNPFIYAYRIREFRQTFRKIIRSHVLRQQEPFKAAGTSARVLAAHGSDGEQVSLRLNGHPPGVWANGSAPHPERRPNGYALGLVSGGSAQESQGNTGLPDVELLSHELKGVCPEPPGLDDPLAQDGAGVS
# T2 sequence (Q60613 whole entry): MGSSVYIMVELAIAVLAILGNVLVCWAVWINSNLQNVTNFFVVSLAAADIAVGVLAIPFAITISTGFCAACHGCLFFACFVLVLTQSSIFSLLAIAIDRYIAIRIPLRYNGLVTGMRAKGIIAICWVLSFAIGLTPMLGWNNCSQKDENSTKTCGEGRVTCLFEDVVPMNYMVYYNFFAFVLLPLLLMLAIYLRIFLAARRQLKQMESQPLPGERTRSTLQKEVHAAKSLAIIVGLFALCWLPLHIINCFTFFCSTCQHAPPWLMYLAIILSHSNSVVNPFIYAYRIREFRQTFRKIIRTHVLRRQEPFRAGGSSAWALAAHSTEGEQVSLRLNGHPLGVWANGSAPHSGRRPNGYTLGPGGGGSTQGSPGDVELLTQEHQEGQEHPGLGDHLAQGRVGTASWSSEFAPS
smiles,measurement,setting,value
COc1ccc(N2CCOCC2)c2nc(NC(=O)c3cccc(N4CCOCC4)c3)[nH]c12,half-life,[1],69 min
same,IC50,Adenosine receptor A2a [2],< 10 nM
same,Ratio IC50,Homo sapiens [3],1000
same,Ratio IC50,Homo sapiens [4],1000
same,Ratio IC50,Homo sapiens [5],1000
same,Cmax,[6],2100 ng/mL
Cc1cccnc1CNC(=O)c1cnc(-c2ccco2)nc1N,IC50,Adenosine receptor A2a [7],77 nM
same,IC50,Adenosine receptor A2a [8],> 200 nM
COc1ccc(-c2cnn(C)c2)c2nc(NC(=O)c3ccc(Cn4ccnc4)cc3)[nH]c12,IC50,Adenosine receptor A2a [9],40 nM
same,IC50,Adenosine receptor A2a [10],40 nM
COc1ccc(-c2cnn(C)c2)c2nc(NC(=O)N3CC[C@@]4(CCCOC4)C3)[nH]c12,half-life,[1],66.6 min
same,Cmax,[6],1440 ng/mL
Nc1nc(-n2cccn2)nc(-n2cccn2)c1Br [PBF-509],Ki,Adenosine receptor A3,5000 nM
same,Ki,Adenosine receptor A1,2500 nM
same,Ki,Adenosine receptor A2b,1000 nM
COc1ccc(-c2ccccc2)c2ncc(NC(=O)N3CCC(C)(O)CC3)nc12,half-life,[1],> 120 min
same,IC50,Adenosine receptor A2a [2],< 100 nM
COCCOc1ccc(N2CCN(CCn3ncc4c3nc(N)n3nc(-c5ccco5)nc43)CC2)cc1,Ratio Ki,Homo sapiens [11],1000
same,Ratio Ki,Homo sapiens [12],1000
same,Ratio Ki,Homo sapiens [13],1000
COCCn1cc(C(=O)Nc2cnc3c(C4CCOCC4)ccc(OC)c3n2)cn1,half-life,[1],20.3 min
same,Cmax,[6],1220 ng/mL
COc1ncc(N2CCOCC2)c2nc(NC(=O)N3CCC(C)(O)CC3)[nH]c12,half-life,[1],50.3 min
same,Cmax,[6],2650 ng/mL
Cc1cccnc1CNC(=O)c1c(N)nc(-c2ccco2)nc1OC[C@H](C)O,IC50,Adenosine receptor A2a [7],77 nM
same,IC50,Adenosine receptor A2a [8],> 200 nM
COc1cccc2c(-c3cn(Cc4cccc(C(C)(O)C(F)(F)F)[n+]4[O-])nn3)nc(N)nc12 (stereo unspecified),Kb,[14],< 100 nM
same,Kb,Adenosine receptor A2a [15],< 100 nM
COc1cccc2c(-c3cn(Cc4cccc(C(C)(C)O)n4)nn3)nc(N)nc12,Kb,[14],< 100 nM
same,Kb,Adenosine receptor A2a [15],< 100 nM
COCCn1cc(C(=O)Nc2nc3c(OC)ccc(N4CCOCC4)c3s2)cn1,half-life,[1],19.9 min
